Source: ChEMBL document CHEMBL5380777, “Efficacy, Mechanism, and Structure-Activity Relationship of 6-Methoxy Benzofuran Derivatives as a Useful Tool for Senile Osteoporosis” (J Med Chem, 2023)
Active and inactive are the calls of the source. The rule behind the calls is not given here.

Key:
[1] = Acute toxicity in wildtype 3 days post-fertilization AB zebrafish at more than 10 uM; parameters: species or system Danio rerio; conditions: in vivo, 72 h
[2] = species on record: Danio rerio; assay: Anti osteoporosis activity in prednisone induced wildtype 3 days post-fertilization AB zebrafish osteoporosis model assessed as increase in bone fluorescence intensity (RVB = 13620 +/- 1692); assay type: functional
[3] = test system: MC3T3-E1; assay: Induction of ALP activity in mouse MC3T3-E1 cells in osteogenic differentiation culture at 1 uM measured on day 7; assay type: functional, cell-based; conditions: time 7.0 day
[4] = test system: Mus musculus; assay: Anti osteoporosis in 16 months old C57 mouse assessed as increase in bone mass administered at 30 mg/kg/day, IG continuously for 4 months by micro CT analysis relative to aged control group; assay type: functional, organism-based
[5] = test system: Mus musculus; assay: Anti osteoporosis in 16 months old C57 mouse assessed as increase in bone mass in femur from proximal end to the distal end administered at 30 mg/kg/day, IG continuously for 2 to 4 months by micro CT analysis relative to aged control group; assay type: functional, organism-based; conditions: time 2-4 months
[6] = Toxicity in 16 months old C57 mouse assessed as change in body weight administered at 30 mg/kg/day, IG continuously for 4 months relative to aged control group; assay type: organism-based; conditions: in vivo, po, 2920 h
[7] = Toxicity in 16 months old C57 mouse assessed as change in blood glucose level administered at 30 mg/kg/day, IG continuously for 4 months; assay type: organism-based; conditions: in vivo, po, 2920 h
[8] = Toxicity in 16 months old C57 mouse assessed as change in total protein level administered at 30 mg/kg/day, IG continuously for 4 months; assay type: organism-based; conditions: in vivo, po, 2920 h
[9] = Toxicity in 16 months old C57 mouse assessed as change in alkaline phosphatase level administered at 30 mg/kg/day, IG continuously for 4 months; assay type: organism-based; conditions: in vivo, po, 2920 h
[10] = test system: Mus musculus; assay: Anti osteoporosis in 2.5 months old SAMP-6 rapid aging mouse model assessed as increase in bone mass administered at 30 mg/kg/day, IG continuously for 3 months in presence of ALN by micro CT analysis; assay type: functional, organism-based
[11] = test system: Mus musculus; assay: Anti osteoporosis in 2.5 months old SAMP-6 rapid aging mouse model assessed as upregulation of serum BMP2 administered at 30 mg/kg/day, IG in presence of ALN continuously for 3 months […]; assay type: functional, organism-based
[12] = Toxicity in 2.5 months old SAMP-6 rapid aging mouse model assessed as change in body weight administered at 30 mg/kg/day, IG continuously for 3 months; assay type: organism-based; conditions: in vivo, po, 2190 h
[13] = Toxicity in 2.5 months old SAMP-6 rapid aging mouse model assessed as morphological change in kidney administered at 30 mg/kg/day, IG continuously for 3 months by hematoxylin and eosin staining analysis; assay type: organism-based; conditions: in vivo, po, 2190 h
[14] = Toxicity in 2.5 months old SAMP-6 rapid aging mouse model assessed as morphological change in liver administered at 30 mg/kg/day, IG continuously for 3 months by hematoxylin and eosin staining analysis; assay type: organism-based; conditions: in vivo, po, 2190 h
[15] = Toxicity in 2.5 months old SAMP-6 rapid aging mouse model assessed as change in ALP level administered at 30 mg/kg/day, IG continuously for 3 months; assay type: organism-based; conditions: in vivo, po, 2190 h
[16] = Toxicity in 2.5 months old SAMP-6 rapid aging mouse model assessed as change in serum ALT level administered at 30 mg/kg/day, IG continuously for 3 months in presence of ALN; assay type: organism-based; conditions: in vivo, po, 2190 h
[17] = Toxicity in 2.5 months old SAMP-6 rapid aging mouse model assessed as change in ALP level administered at 30 mg/kg/day, IG continuously for 3 months in presence of ALN; assay type: organism-based; conditions: in vivo, po, 2190 h
[18] = Toxicity in 2.5 months old SAMP-6 rapid aging mouse model assessed as change in urea level administered at 30 mg/kg/day, IG continuously for 3 months in presence of ALN; assay type: organism-based; conditions: in vivo, po, 2190 h
[19] = Toxicity in 2.5 months old SAMP-6 rapid aging mouse model assessed as change in creatinine level administered at 30 mg/kg/day, IG continuously for 3 months in presence of ALN; assay type: organism-based; conditions: in vivo, po, 2190 h
[20] = test system: Mus musculus; assay: Anti osteoporosis in 2.5 months old SAMP-6 rapid aging mouse model assessed as bone mass maintenance administered at 30 mg/kg/day, IG continuously for 3 months; assay type: functional, organism-based
[21] = test system: Mus musculus; assay: Anti osteoporosis in 16 months old C57 mouse assessed as osteoblast level in femur administered at 30 mg/kg/day, IG continuously for 4 months by scRNA-seq analysis (reference value: 5.05%); assay type: functional; conditions: 2920 h
[22] = test system: Mus musculus; assay: Anti osteoporosis in 16 months old C57 mouse assessed as B cell level in femur administered at 30 mg/kg/day, IG continuously for 4 months by scRNA-seq analysis (reference value: 5.19%); assay type: functional; conditions: 2920 h
[23] = test system: Mus musculus; assay: Anti osteoporosis in 16 months old C57 mouse assessed as endothelial cell level in femur administered at 30 mg/kg/day, IG continuously for 4 months by scRNA-seq analysis (reference value: 2.34%); assay type: functional; conditions: 2920 h
[24] = test system: Mus musculus; assay: Anti osteoporosis in 16 months old C57 mouse assessed as macrophage level in femur administered at 30 mg/kg/day, IG continuously for 4 months by scRNA-seq analysis (reference value: 1.88%); assay type: functional; conditions: 2920 h
[25] = test system: Mus musculus; assay: Anti osteoporosis in 16 months old C57 mouse assessed as myeloid progenitor level in femur administered at 30 mg/kg/day, IG continuously for 4 months by scRNA-seq analysis (reference value: 2.18%); assay type: functional; conditions: 2920 h
[26] = test system: Mus musculus; assay: Anti osteoporosis in 16 months old C57 mouse assessed as dendritic cell level in femur administered at 30 mg/kg/day, IG continuously for 4 months by scRNA-seq analysis (reference value: 1.34%); assay type: functional; conditions: 2920 h
[27] = test system: Mus musculus; assay: Anti osteoporosis in 16 months old C57 mouse assessed as megakaryocyte level in femur administered at 30 mg/kg/day, IG continuously for 4 months by scRNA-seq analysis (reference value: 1%); assay type: functional; conditions: 2920 h
[28] = test system: Osteoblast; assay: Upregulation of BMP-2 expression in 16 months old C57 mouse osteoblast by scRNA-seq analysis; assay type: functional, cell-based
[29] = test system: Osteoclast; assay: Upregulation of BMP-2 expression in 16 months old C57 mouse osteoclast by scRNA-seq analysis; assay type: functional, cell-based
[30] = test system: Osteoblast; assay: Upregulation of transcription factor […] expression in 16 months old C57 mouse osteoblast by scRNA-seq analysis; assay type: functional, cell-based
[31] = test system: Osteoblast; assay: Upregulation of transcription factor XBP1 expression in 16 months old C57 mouse osteoblast by scRNA-seq analysis; assay type: functional, cell-based
[32] = test system: Osteoblast; assay: Upregulation of transcription factor TAX1BP1 expression in 16 months old C57 mouse osteoblast by scRNA-seq analysis; assay type: functional, cell-based
[33] = test system: Osteoblast; assay: Upregulation of transcription factor MYC expression in 16 months old C57 mouse osteoblast by scRNA-seq analysis; assay type: functional, cell-based
[34] = test system: Osteoblast; assay: Upregulation of transcription factor PSMD12 expression in 16 months old C57 mouse osteoblast by scRNA-seq analysis; assay type: functional, cell-based
[35] = test system: Osteoblast; assay: Regulation of osteogenesis in 16 months old C57 mouse osteoblast endoplasmic reticulum assessed as increase in Hsp90aa1 gene by scRNA-seq analysis; assay type: functional, cell-based
[36] = test system: Osteoblast; assay: Regulation of osteogenesis in 16 months old C57 mouse osteoblast endoplasmic reticulum assessed as increase in Hsp90ab1 gene by scRNA-seq analysis; assay type: functional, cell-based
[37] = test system: Osteoblast; assay: Regulation of osteogenesis in 16 months old C57 mouse osteoblast endoplasmic reticulum assessed as increase in CRYAB gene by scRNA-seq analysis; assay type: functional, cell-based

In the case of `COc1ccc2cc(C(=O)NCCN(C)C)oc2c1.CS(=O)(=O)O`, the Activity [1] is reported as “Toxic”, the Flu intensity [2] is reported as 19181 and the Activity [3] is reported as “Active”. For the same compound, the Activity [4] was “Active”, the Activity [5] was “Active” and the Activity [6] was “Non-Toxic”. The Activity [7] was “Non-Toxic”, the Activity [8] was “Non-Toxic” and the Activity [9] was “Non-Toxic”. The Activity [10] was “Active”, the Activity [11] was “Active” and the Activity [12] was “Non-Toxic”. The Activity [13] was “Non-Toxic”, the Activity [14] was “Non-Toxic” and the Activity [15] was “Non-Toxic”. For the same compound, the Activity [16] was “Non-Toxic”, the Activity [17] was “Non-Toxic” and the Activity [18] was “Non-Toxic”. The Activity [19] was “Non-Toxic”, the Activity [20] was “Active” and the Activity [21] was 15.03%. It also gave an Activity [22] of 3.05%, an Activity [23] of 2.38% and an Activity [24] of 1.33%. It also gave an Activity [25] of 0.32%, an Activity [26] of 0.68% and an Activity [27] of 0.78%. The Activity [28] was “Active”, the Activity [29] was “Active” and the Activity [30] was “Active”. The Activity [31] was “Active”, the Activity [32] was “Active” and the Activity [33] was “Active”. For the same compound, the Activity [34] was “Active”, the Activity [35] was “Active” and the Activity [36] was “Active”. The Activity [37] was “Active”.
